The test system of test [1] is Radical scavenging activity. The test is described as follows: Antioxidant activity assessed as DPPH radical scavenging activity at 1500 ug/ml. The test is classed as functional.
Test [2] relates to Radical scavenging activity. The test is described as follows: Antioxidant activity assessed as DPPH radical scavenging activity at 1000 ug/ml. The test is classed as functional. For orientation: The DPPH test is a chemical assay of radical scavenging.
The subject of test [3] is Radical scavenging activity. The test is described as follows: Antioxidant activity assessed as DPPH radical scavenging activity at 500 ug/ml. It is filed as functional.
The test system of test [4] is Penicillium chrysogenum. The test is described as follows: Antifungal activity against Penicillium chrysogenum by poison plate assay method. The test is classed as functional, organism-based.
For test [5], the system named is Aspergillus niger. The test is described as follows: Antifungal activity against Aspergillus niger by poison plate assay method. It is filed as functional, organism-based.
The subject of test [6] is Escherichia coli. The test is described as follows: Antibacterial activity against Escherichia coli by agar cup-plate assay method. It is filed as functional.
Test [7] relates to Staphylococcus aureus. The test is described as follows: Antibacterial activity against Staphylococcus aureus by agar cup-plate assay method. The test is classed as functional.
The subject of test [8] is Radical scavenging activity. The test is described as follows: Antioxidant activity assessed as DPPH radical scavenging activity at 2500 ug/ml. It is filed as functional.
Test [9] concerns Radical scavenging activity. The test is described as follows: Antioxidant activity assessed as DPPH radical scavenging activity at 50 ug/ml. The test is classed as functional.
In test [10] the test system is Radical scavenging activity. The test is described as follows: Antioxidant activity assessed as DPPH radical scavenging activity at 40 ug/ml. It is filed as functional.
Test [11] relates to Radical scavenging activity. The test is described as follows: Antioxidant activity assessed as DPPH radical scavenging activity at 30 ug/ml. It is filed as functional.
Test [12] concerns Radical scavenging activity. The test is described as follows: Antioxidant activity assessed as DPPH radical scavenging activity at 20 ug/ml. It is filed as functional.

Active and inactive are the calls of the source. The rule behind the calls is not given here.

For `Clc1cccc(/C=C/c2ccc(Cl)cc2Cl)c1`, the Activity in [1] worked out at 56.1%; in test [2], 49.7%; in [3] it was 44.7%; in test [8], 61.4%. Further, the “inhibition zone (IZ)” value in [4] was “Active”. For the same compound, the “inhibition zone (IZ)” value in [5] and in test [6] was “inactive” throughout. Moreover, in test [7], the “inhibition zone (IZ)” value is reported as 26 mm.
With `Clc1ccc(/C=C/c2ccc(Cl)cc2Cl)cc1`, the Activity in [1] came to 45.7%; in [2], 43.5%; in test [3], 41.3%; in test [8], 47.2%. In addition, the “inhibition zone (IZ)” value in test [4], in [5] and in test [6] was “inactive” in each case. Besides, in [7], the “inhibition zone (IZ)” value is reported as 24 mm.
`Cc1ccc(/C=C/c2ccc(F)cc2)cc1`: the Activity was 39.5% in [1], 36.4% in [2], 35.4% in test [3] and 45.4% in [8]. Also, the “inhibition zone (IZ)” value in test [4], in test [5], in test [6] and in test [7] was “inactive” in each case.
Consider `Fc1ccc(/C=C/c2ccc(F)c(F)c2)cc1`, for which the Activity in test [1] came to 46.5%; in test [2], 44.6%; in test [3], 43.9%; in [8], 48.1%. The “inhibition zone (IZ)” value in test [4], in test [5] and in test [6] was “inactive” throughout. The “inhibition zone (IZ)” value in test [7] amounted to 36 mm.
As to `Cc1ccc(/C=C/c2ccc(Cl)cc2Cl)cc1`, the Activity in [1] is 37.1%; in test [2], 36.4%; in test [3] it was 34.8%; in [8], 39.1%. Besides, the “inhibition zone (IZ)” value in test [4], in [5] and in test [6] was “inactive” throughout. The “inhibition zone (IZ)” value in [7] came to 12 mm.
For the compound `CC1(C)S[C@@H]2[C@H](NC(=O)Cc3ccccc3)C(=O)N2[C@H]1C(=O)O` [PENICILLIN G], the results for the “inhibition zone (IZ)” value in test [6] and in test [7] were 17 mm and 40 mm, respectively.
For `Cc1ccc(/C=C/c2ccc(C)cc2)cc1` [(E)-1,2-DI-P-TOLYLETHENE], the Activity in [1] is 37.1%; in [2], 35.7%; in test [3], 34.9%; in test [8], 38%. Moreover, the “inhibition zone (IZ)” value in [4], in [5] and in [6] was “inactive” each time. In addition, the “inhibition zone (IZ)” value in test [7] was 20 mm.
For the compound `Fc1ccc(/C=C/c2cccc(Cl)c2)cc1`, the Activity came out at 37.8% in [1], 35.6% in test [2], 33% in test [3] and 39.8% in test [8]. Further, the “inhibition zone (IZ)” value in test [4] is “Active”. The “inhibition zone (IZ)” value in test [5] and in [6] was “inactive” in each case. Moreover, the “inhibition zone (IZ)” value in [7] is recorded as 22 mm.
As for `Clc1ccc(/C=C/c2ccc(Cl)c(Cl)c2)c(Cl)c1`, the Activity was 54.2% in test [1], 49.1% in [2], 46.5% in test [3] and 58% in test [8]. For the same compound, in [4], the “inhibition zone (IZ)” value is “Active”. In addition, the “inhibition zone (IZ)” value in [5] and in [6] was “inactive” throughout. Further, the “inhibition zone (IZ)” value in [7] was 28 mm.
As for `Fc1ccc(/C=C/c2ccc(F)cc2)cc1`, the Activity in test [1] turned out to be 44.9%; in [2], 37.4%; in test [3], 35.2%; in test [8], 53.8%. Also, the “inhibition zone (IZ)” value in test [4] is “Active”. The “inhibition zone (IZ)” value in test [5] and in test [6] was “inactive” in each case. For the same compound, in test [7], the “inhibition zone (IZ)” value turned out to be 24 mm.
For `Fc1ccc(/C=C/c2cccc(F)c2)cc1`, the Activity in test [1] was determined as 47.1%; in test [2], 42.1%; in [3], 40.5%; in [8] it was 49.5%. The “inhibition zone (IZ)” value in test [4] was “Active”. For the same compound, the “inhibition zone (IZ)” value in [5] and in test [6] was “inactive” each time. Also, the “inhibition zone (IZ)” value in [7] worked out at 28 mm.
On to `COC1=CC(=O)C[C@@H](C)[C@]12Oc1c(Cl)c(OC)cc(OC)c1C2=O`, for which the “inhibition zone (IZ)” value in test [4] and in [5] was “Active” each time.
For the compound `Fc1ccc(/C=C/c2ccc(Cl)cc2Cl)cc1`, the Activity in test [1] was found to be 37.8%; in test [2], 37.1%; in test [3], 35.2%; in test [8] it was 39.3%. In addition, the “inhibition zone (IZ)” value in test [4] is “Active”. The “inhibition zone (IZ)” value in test [5] and in test [6] was “inactive” each time. The “inhibition zone (IZ)” value in test [7] is listed as 18 mm.
Take `Fc1ccc(/C=C/c2ccc(Cl)cc2)cc1`: the Activity in [1] is 41.6%; in test [2], 40.8%; in [3], 37.4%; in [8], 45.5%. Besides, the “inhibition zone (IZ)” value in [4] is “Active”. In addition, the “inhibition zone (IZ)” value in [5] and in test [6] was “inactive” in each case. Also, the “inhibition zone (IZ)” value in test [7] came out at 20 mm.
Regarding `O=C1O[C@H]([C@@H](O)CO)C(O)=C1O`, the Activity came to 94.7% in test [9], 92% in test [10], 86.7% in [11] and 80.9% in test [12].
On to `Clc1ccc(/C=C/c2ccc(Cl)cc2Cl)c(Cl)c1`, for which the Activity in test [1] was 50.2%; in [2] it was 48.7%; in test [3] it was 44.6%; in test [8], 56.4%. Further, the “inhibition zone (IZ)” value in [4], in [5] and in test [6] was “inactive” throughout. In addition, the “inhibition zone (IZ)” value in test [7] was 24 mm.
For the compound `Fc1ccc(/C=C/c2ccc(F)cc2F)cc1`, the Activity amounted to 50.3% in test [1], 48% in test [2], 45.3% in [3] and 52.5% in test [8]. For the same compound, the “inhibition zone (IZ)” value in test [4], in [5] and in [6] was “inactive” throughout. Also, the “inhibition zone (IZ)” value in [7] is 30 mm.

These data come from ChEMBL document CHEMBL3045182, “Synthesis and biological evaluation of some stilbene-based analogues” (Med Chem Res, 2011).
